Assay results reported in ChEMBL document CHEMBL1201862, “PubChem BioAssay data set” (2004).
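Tested at 5 concentrations; 48 h exposure; 96-well plates; endpoints linearly interpolated, else capped at highest concentration. GI50 marks 50% less growth.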 Calls of active or inactive are those of the source. No stated cut-off is given here; in the data, active = GI50 up to about 1.1 µM and inactive = higher.

Columns and labels:
Experiment in all cases: NCI tumour cell line growth inhibition, 48 h
[1] = system: ACHN
[2] = system: CCRF-CEM
[3] = system: COLO 205
[4] = system: HCC 2998
[5] = system: HT-29
[6] = system: IGROV-1
[7] = system: K562
[8] = system: LOX IMVI
[9] = system: MDA-N
[10] = system: OVCAR-4
[11] = system: OVCAR-5
[12] = system: OVCAR-8
[13] = system: RPMI-8226
[14] = system: RXF 393
[15] = system: SK-MEL-28
[16] = system: SK-OV-3
[17] = system: SNB-19
[18] = system: SR
[19] = system: T47D
[20] = system: SF-539

SMILES | GI50 [1] | GI50 [2] | GI50 [3] | GI50 [4] | GI50 [5] | GI50 [6] | GI50 [7] | GI50 [8] | GI50 [9] | GI50 [10] | GI50 [11] | GI50 [12] | GI50 [13] | GI50 [14] | GI50 [15] | GI50 [16] | GI50 [17] | GI50 [18] | GI50 [19] | GI50 [20]
CN(C)/N=N/c1nc2c(c(=O)n(C)c(=O)n2C)n1C | > 100 µM (inactive) | > 100 µM (inactive) | > 100 µM (inactive) | > 100 µM (inactive) | > 100 µM (inactive) | > 100 µM (inactive) | > 100 µM (inactive) | > 100 µM (inactive) | > 100 µM (inactive) | > 100 µM (inactive) | > 100 µM (inactive) | > 100 µM (inactive) | > 100 µM (inactive) | > 100 µM (inactive) | > 100 µM (inactive) | > 100 µM (inactive) | > 100 µM (inactive) | 4.04 µM (inactive) | 14.3 µM (inactive) | –
Oc1ccc2ccccc2c1/N=N/c1ccc(Br)cc1 | 89.1 µM (inactive) | > 100 µM (inactive) | > 100 µM (inactive) | – | > 100 µM (inactive) | 36.1 µM (inactive) | > 100 µM (inactive) | > 100 µM (inactive) | > 100 µM (inactive) | 27.8 µM (inactive) | 63 µM (inactive) | > 100 µM (inactive) | > 100 µM (inactive) | > 100 µM (inactive) | > 100 µM (inactive) | 17.4 µM (inactive) | > 100 µM (inactive) | > 100 µM (inactive) | > 100 µM (inactive) | –
N#Cc1c(N)nc2c(c1-c1ccc(Br)cc1)CSc1ccccc1-2 | – | 22.4 µM (inactive) | 13.3 µM (inactive) | – | 34.6 µM (inactive) | 21.9 µM (inactive) | 32.1 µM (inactive) | 28.6 µM (inactive) | 49.4 µM (inactive) | 24.6 µM (inactive) | – | 55 µM (inactive) | 18.2 µM (inactive) | 20.1 µM (inactive) | 68.7 µM (inactive) | 29.6 µM (inactive) | 39.7 µM (inactive) | 68.4 µM (inactive) | 17.4 µM (inactive) | 35 µM (inactive)
CCOC(=O)NC(=S)NC(C)c1ccccc1 (centres undefined) | > 100 µM (inactive) | > 100 µM (inactive) | > 100 µM (inactive) | > 100 µM (inactive) | > 100 µM (inactive) | > 100 µM (inactive) | > 100 µM (inactive) | – | > 100 µM (inactive) | > 100 µM (inactive) | > 100 µM (inactive) | > 100 µM (inactive) | 27.2 µM (inactive) | > 100 µM (inactive) | > 100 µM (inactive) | > 100 µM (inactive) | > 100 µM (inactive) | 56.6 µM (inactive) | 98.6 µM (inactive) | –
COc1ccc(/N=N/c2ccc3oc(=O)c(C(=O)Nc4ccccc4)cc3c2)cc1 | > 5.81 µM (inactive) | – | > 10 µM (inactive) | > 10 µM (inactive) | > 10 µM (inactive) | > 10 µM (inactive) | – | > 10 µM (inactive) | > 10 µM (inactive) | > 10 µM (inactive) | > 10 µM (inactive) | > 8.51 µM (inactive) | > 10 µM (inactive) | > 10 µM (inactive) | > 10 µM (inactive) | > 10 µM (inactive) | > 10 µM (inactive) | > 10 µM (inactive) | 4.5 µM (inactive) | > 9.31 µM (inactive)
CCOC(=O)c1c(C)nc2c(c1-c1cn(-c3ccccc3)nc1-c1ccccc1)C(=O)c1ccccc1-2 | – | > 100 µM (inactive) | > 100 µM (inactive) | – | 13.8 µM (inactive) | > 100 µM (inactive) | > 100 µM (inactive) | > 100 µM (inactive) | > 100 µM (inactive) | > 100 µM (inactive) | > 100 µM (inactive) | > 100 µM (inactive) | – | > 100 µM (inactive) | > 100 µM (inactive) | > 100 µM (inactive) | > 100 µM (inactive) | > 10 µM (inactive) | > 100 µM (inactive) | –
COc1ccc2c(c1)-c1nc(=O)n(CCCN(C)C)c3ccc([N+](=O)[O-])c(c13)N2 | 0.485 µM (active) | 0.117 µM (active) | 0.752 µM (active) | 1.06 µM (active) | 0.473 µM (active) | 0.413 µM (active) | 0.0811 µM (active) | 0.838 µM (active) | 3.22 µM (inactive) | 1.77 µM (inactive) | 1.15 µM (inactive) | 0.724 µM (active) | 0.231 µM (active) | – | 1.19 µM (inactive) | 1.29 µM (inactive) | 2.5 µM (inactive) | 0.406 µM (active) | 15.5 µM (inactive) | 0.421 µM (active)
CCN(CC)C(=S)Oc1cc2oc(=O)cc(C)c2cc1Cl | > 100 µM (inactive) | > 100 µM (inactive) | > 100 µM (inactive) | 52.7 µM (inactive) | > 100 µM (inactive) | > 100 µM (inactive) | > 100 µM (inactive) | 68.7 µM (inactive) | > 100 µM (inactive) | > 100 µM (inactive) | > 100 µM (inactive) | > 100 µM (inactive) | > 100 µM (inactive) | 25.5 µM (inactive) | > 100 µM (inactive) | – | 66.5 µM (inactive) | > 100 µM (inactive) | 54 µM (inactive) | > 100 µM (inactive)
